Test results taken from BindingDB's records for doi:10.1016/s0960-894x(00)00194-3 (The Oxford Centre For Molecular Sciences, 2000).
Where a SMILES comes first, the peptide text is derived from it.

assay: Peptide was tested for inhibition constant for competitive inhibition using Suc-AAPA-pNa and Pancreatic elastase

Row | Ki | Structure (SMILES)
1 | 1100 µM | CSCC[C@H](N)C(=O)N[C@@H](Cc1ccccc1)C(=O)N[C@@H](CC(C)C)C(=O)N[C@@H](C)C(=O)O [(S)-2-{(S)-2-[(S)-2-((S)-2-Amino-4-methylsulfanyl-butyrylamino)-3-phenyl-propionylamino]-4-methyl-pentanoylamino}-propionic acid] (H-MFLA-OH)
2 | 100 µM | CC[C@H](C)[C@H](NC(=O)[C@H](CO)NC(=O)[C@H](CCSC)NC(=O)[C@@H]1CCCN1C(=O)[C@@H](NC(=O)[C@H](C)NC(=O)[C@H](CCC(=O)O)NC(=O)[C@H](CC(C)C)NC(=O)[C@H](Cc1ccccc1)NC(=O)[C@@H](N)CCSC)[C@@H](C)CC)C(=O)O
3 | 5800 µM | CC[C@H](C)[C@H](NC(=O)[C@H](C)NC(=O)[C@H](CCC(=O)O)NC(=O)[C@H](CC(C)C)NC(=O)[C@H](Cc1ccccc1)NC(=O)[C@@H](N)CCSC)C(=O)N1CCC[C@H]1C(=O)N[C@@H](CCSC)C(=O)N[C@@H](CO)C(=O)O
